Measured values published in patent US20230365568A1, “PLK1 POLO BOX DOMAIN INHIBITORS AND METHOD OF TREATING CANCER” (The United States of America,as represented by the …, priority 2020, published 2023).
Where two headings read alike, the source gives them in different places. Marks after values point to notes of the source that are not given here. Each block holds one compound with its values, some of them ahead of it.

Tests used:
[1] = tested on: HeLa cells; assay: Mitotic arrest and antiproliferation in HeLa cells (DAPI staining, cell counts); type: cell-based; settings: for induction of mitotic arrest (rounded cells with apoptotic or aberrant chromosome morphologies): 100 μM; for population of rounded cells with mitotically arrested or apoptotic chromosome morphologies: 25 μM, 12 h
Method: HeLa cells were cultured as recommended by the American Type Culture Collection (ATCC). […] Immunostaining was carried out using anti-Plk1 (Santa Cruz Biotechnology, Santa Cruz, CA), anti-Cep63 (MilliporeSigma), anti-CREST (Antibodies Incorp, Davis, CA), and anti-α-tubulin (Sigma, St. Louis, MO) antibodies.
(§1) To quantify fluorescence signal intensities, images were acquired under the same settings and the images obtained after the maximum-intensity projection of z-stacks were analyzed using the Zeiss ZEN v2.1 software (Carl Zeiss Microscopy, LLC). All the quantifications were performed with randomly chosen fields from at least three independent experiments. All values are given as mean±s. D. P values were calculated by unpaired t test from the mean data of each group in Graph Pad Prism (***P<0.001). The statistical details including the definitions and value of n (e.g., number of experimental replicates, cells, etc.) And standard deviations are provided herein.

[2] = Stability in human cytosol; type: in vitro ADME; settings: for half-life: read-out: t1/2 Human cytosol
[3] = Stability in human liver microsomes; type: in vitro ADME; settings: for half-life: read-out: t1/2 Human LM
[4] = biological target: full-length human Plk1 (Homo sapiens (Human), UniProt P53350); assay: ELISA-based Plk1 PBD-binding inhibition assay; settings: Plk1 PBD; n = 3 unless noted
Method: An ELISA-based PBD-binding inhibition assay was performed essentially as described previously. […] The wells were washed once with PBS+0.05% Tween20 (PBST) and incubated with 200 μl of PBS plus 1% BSA (blocking buffer) for 1 h to prevent non-specific binding. HEK293A lysates expressing HA-EGFP-Plk1 were prepared in a TBSN [20 mM Tris-HCl (pH 8.0), 150 mM NaCl, 0.5% NP-40, 5 mM EGTA, 2 mM MgCl2, 1.5 mM EDTA, and protease inhibitor cocktail (Roche)]+20% DMSO buffer (˜20 μg total lysates in 100 μl buffer), mixed with the indicated amount of the competitors (p-T78 peptide and its derivative compounds) for 30 min, provided onto the biotinylated peptide-coated ELISA wells, and then incubated with constant rocking for 1 h at 25° C. Following the incubation, ELISA plates were washed 5 times with PBST. To detect bound HA-EGFP-Plk1, the plates were probed for 2 h with 100 μl/well of anti-HA antibody at a concentration of 0.5 μg/ml in the blocking buffer and then washed 5 times. The plates were further probed for 1 h with 100 μl/well of HRP-conjugated secondary antibody (GE Healthcare) at a 1:1,000 dilution in the blocking buffer. The plates were washed 5 times with PBST and incubated with 100 μl/well of 3,3′,5,5′-tetramethylbenzidine solution (Sigma-Aldrich, St. Louis, MO) as substrate until a desired absorbance was reached. The reactions were stopped by the addition of 100 μl/well of stop solution (Cell Signaling Technology, Danvers, MA). The optical density (O.D.) was measured at 450 nm by using a Perkin-Elmer Enspire Multimode Plate reader (PerkinElmer, Inc., Boston, MA). Data obtained from more than three independent experiments were analyzed by GraphPad (San Diego, CA) Prism software version 7.
ELISA-based PBD-binding Inhibition Assay. […] The reaction products were measured at 450 nm by using a Perkin-Elmer Enspire Multimode Plate reader (PerkinElmer, Inc., Boston, MA). Data obtained from more than three independent experiments were analyzed by GraphPad (San Diego, CA) Prism software version 7.

[5] = Stability in rat liver microsomes (Table 10); type: in vitro ADME; settings: for half-life: read-out: t1/2 Rat LM
[6] = Stability in mouse cytosol; type: in vitro ADME; settings: for half-life: read-out: t1/2 Mouse cytosol
[7] = Aqueous solubility
[8] = Microsomal metabolic stability, rat liver microsomes (RLM)
[9] = Stability in rat cytosol; type: in vitro ADME; settings: for half-life: read-out: t1/2 Rat cytosol
[10] = Stability in mouse liver microsomes; type: in vitro ADME; settings: for half-life: read-out: t1/2 Mouse LM
[11] = tested on: multiple myeloma-derived L363 cells; assay: MTS cell proliferation assay in L363 cells; type: cell-based; settings: for GI50: read-out: Cell efficacy, GI50 ± sd
Method: MTS Assay. […] 96™ AQueous One Solution Cell Proliferation Assay (MTS) kit (Promega, WI). Briefly, asynchronously growing L363 cells cultured in a 96-well plate were treated with the indicated compounds for 48 h.

[12] = PAMPA permeability
[13] = tested on: Plk1 localization to centrosomes and kinetochores in HeLa cells; assay: Immunostaining of Plk1 localization and spindle morphology in HeLa cells; type: cell-based; settings: 25 μM, 2 h
Method: HeLa cells were cultured as recommended by the American Type Culture Collection (ATCC). Asynchronously growing cells were treated with control DMSO or the indicated concentration of 143. To reveal chromosome morphologies, cells were treated with 4′,6-diamidino-2-phenylindole (DAPI), fixed, and subjected to confocal microscopy. Immunostaining was carried out using anti-Plk1 (Santa Cruz Biotechnology, Santa Cruz, CA), anti-Cep63 (MilliporeSigma), anti-CREST (Antibodies Incorp, Davis, CA), and anti-α-tubulin (Sigma, St. Louis, MO) antibodies. Confocal images were acquired using a Zeiss LSM780 equipped with a plan-apochromat 63× (N.A. 1.4) oil-immersion objective lens, 34-channel GaAsP spectral detector (Carl Zeiss Microscopy, LLC.), and 8-bit, 0.5-μm z-steps.
as §1
To directly examine whether the observed mitotic arrest was the consequence of inhibiting Plk1 PBD function, immunostaining analysis was carried out to determine the ability of intracellular Plk1 to localize to centrosomes and kinetochores, an event that requires PBD-mediated protein-protein interaction (Lee et al., Trends Pharmacol. Sci. 36, 858-877 (2015); and Elia et al., Cell 115, 83-95 (2003)). […] A short treatment time (i.e., 2 h), which was intended to minimize a potential indirect effect of these inhibitors, was sufficient to delocalize greater than 70% of Plk1 signals from centrosomes (marked by anti-Cep63 signals) and 90% of those from kinetochores (marked by anti-CREST signals).

[14] = Homo sapiens, L-363, 48 h treatment

Chain of full-length human Plk1 (P53350 whole entry): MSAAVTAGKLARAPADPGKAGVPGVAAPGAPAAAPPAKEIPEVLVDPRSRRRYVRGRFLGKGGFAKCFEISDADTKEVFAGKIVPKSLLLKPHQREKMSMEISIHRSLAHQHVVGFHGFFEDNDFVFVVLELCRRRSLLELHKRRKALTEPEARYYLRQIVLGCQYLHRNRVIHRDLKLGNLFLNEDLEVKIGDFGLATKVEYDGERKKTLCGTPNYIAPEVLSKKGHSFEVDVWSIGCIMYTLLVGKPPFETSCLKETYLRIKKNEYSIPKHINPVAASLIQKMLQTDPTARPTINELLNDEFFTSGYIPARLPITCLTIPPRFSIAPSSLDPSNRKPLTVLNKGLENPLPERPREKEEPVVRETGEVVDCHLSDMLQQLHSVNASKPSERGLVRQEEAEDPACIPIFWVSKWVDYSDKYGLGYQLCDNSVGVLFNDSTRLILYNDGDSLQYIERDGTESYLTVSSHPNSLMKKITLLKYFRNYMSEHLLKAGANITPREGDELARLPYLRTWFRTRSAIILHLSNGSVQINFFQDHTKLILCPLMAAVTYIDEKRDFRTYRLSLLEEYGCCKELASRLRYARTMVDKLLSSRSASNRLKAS

SMILES: CCCn1c(=O)c2ccccc2n2c(=S)[nH]nc12 [compound 21, 4-propyl-1-thioxo-2,4-dihydro-[1,2,4]triazolo[4,3-a]quinazolin-5(1H)-one]
- induction of mitotic arrest (rounded cells with apoptotic or aberrant chromosome morphologies) [1]: lacked a detectable level of cellular response
- half-life [2]: > 2 h
- half-life [3]: > 2 h
- IC50 [4]: 1.03 ± 0.08 µM
- half-life [5]: > 2 h
- half-life [6]: > 2 h
- Solub. ([7]; aqueous solubility): 21.3 µg/mL
- half-life ([8]; rat liver microsomes): > 0.5 h
- half-life [9]: > 2 h
- half-life [10]: > 2 h

SMILES: C[C@H]1C[C@@H]1n1c(=O)c2cc(F)ccc2n2c(=S)[nH]nc12 [compound 80]
- t1/2 Human cytosol [2]: >2 h
- t1/2 Human LM [3]: 0.8472 h
- t1/2 Rat LM [5]: >2 h
- PAMPA: 188 ×10⁻⁶ cm/s
- t1/2 Mouse cytosol [6]: >2 h
- Solub. ([7]; aqueous solubility): 13.2 µg/mL
- t1/2 (min, RLM) ([8]; rat liver microsomes): >30 min
- t1/2 Rat cytosol [9]: >2 h
- t1/2 Mouse LM [10]: 1.7515 h

SMILES: NCCCn1c(=O)c2cc(F)ccc2n2c(=S)[nH]nc12 [compound 68]
- t1/2 Human cytosol [2]: >2 h
- t1/2 Human LM [3]: >2 h
- t1/2 Rat LM [5]: 1.7728 h
- t1/2 Mouse cytosol [6]: >2 h
- Solub. ([7]; Free base): 27 µg/mL
- Solub. ([7]; TFA salt): > 43 µg/mL
- t1/2 (min, RLM) ([8]; Free base): >30^c >30^d min
- t1/2 (min, RLM) ([8]; TFA salt): >30^c >30^d min
- t1/2 Rat cytosol [9]: >2 h
- t1/2 Mouse LM [10]: >2 h

SMILES: O=c1c2cc(F)ccc2n2c(=S)[nH]nc2n1CCc1ccncc1 [compound 85]
- population of rounded cells with mitotically arrested or apoptotic chromosome morphologies [1]: induced Plk1 delocalization and mitotic arrest at a level similar to those of compound 75
- Solub. ([7]; aqueous solubility): 10.9 µg/mL
- GI50 ([11]; 48 h treatment): 3.11 µM
- t1/2 (min, RLM) ([8]; rat liver microsomes): >30 min

SMILES: CCCn1c(=O)c2cc(F)ccc2n2c(=S)[nH]nc12 [compound 64, 7-fluoro-4-propyl-1-thioxo-2,4-dihydro-[1,2,4]triazolo[4,3-a]quinazolin-5(1H)-one]
- induction of mitotic arrest (rounded cells with apoptotic or aberrant chromosome morphologies) [1]: lacked a detectable level of cellular response
- half-life [2]: > 2 h
- half-life [3]: > 2 h
- PAMPA [12]: 195 ×10⁻⁶ cm/s
- half-life [5]: 2 h
- half-life [6]: > 2 h
- Solub. ([7]; aqueous solubility): >28 µg/mL
- t1/2 (min, RLM) ([8]; rat liver microsomes): >30 min
- half-life [9]: > 2 h
- half-life [10]: > 2 h

SMILES: CCCn1c(=O)c2cccc(F)c2n2c(=S)[nH]nc12 [compound 139, 9-fluoro-4-propyl-1-thioxo-2,4-dihydro-[1,2,4]triazolo[4,3-a]quinazolin-5(1H)-one]
- induction of mitotic arrest (rounded cells with apoptotic or aberrant chromosome morphologies) [1]: lacked a detectable level of cellular response

SMILES: CS(=O)(=O)NCCn1c(=O)c2cc(F)ccc2n2c(=S)[nH]nc12 [compound 75]
- population of rounded cells with mitotically arrested or apoptotic chromosome morphologies [1]: approximately 60%
- Solub. ([7]; aqueous solubility): >53 µg/mL
- GI50 ([11]; 48 h treatment): 4.1 µM
- t1/2 (min, RLM) ([8]; rat liver microsomes): >30 min
- Plk1 signals delocalized from centrosomes [13]: greater than 70%
- Plk1 signals delocalized from kinetochores [13]: > 90%
- effect on Plk1 localization [13]: greatly diminished Plk1 signal intensities at both centrosomes and kinetochores

SMILES: O=c1c2cc(F)ccc2n2c(=S)[nH]nc2n1CCc1ccc(Cl)cc1 [Example 43, 4-(4-chlorophenethyl)-7-fluoro-1-thioxo-2,4-dihydro-[1,2,4]triazolo[4,3-a]quinazolin-5(1H)-one]
- population of rounded cells with mitotically arrested or apoptotic chromosome morphologies [1]: failed to show any of these phenotypes
- Cell efficacy, GI50 ± sd (μM) ([11]; 48 h treatment): failed to induce any a detectable level of cellular response

SMILES: CC(=O)Nc1ccc2c(c1)c(=O)n(CCc1ccccc1)c1n[nH]c(=S)n21 [Example 14, N-(5-oxo-4-phenethyl-1-thioxo-1,2,4,5-tetrahydro-[1,2,4]triazolo[4,3-a]quinazolin-7-yl)acetamide]
- population of rounded cells with mitotically arrested or apoptotic chromosome morphologies [1]: failed to show any of these phenotypes
- Cell efficacy, GI50 ± sd (μM) ([11]; 48 h treatment): failed to induce any a detectable level of cellular response

Second part, led by results:

- half-life [2]: > 2 h
- half-life [3]: 0.241 h
- half-life [5]: 0.439 h
- half-life [6]: > 2 h
- half-life [9]: > 2 h
- half-life [10]: 0.176 h
SMILES: CCCn1c(=O)c2cc(F)ccc2n2c(SC)nnc12 [compound 144, 7-fluoro-1-(methylthio)-4-propyl-[1,2,4]triazolo[4,3-a]quinazolin-5(4H)-one]
- induction of mitotic arrest (rounded cells with apoptotic or aberrant chromosome morphologies) [1]: induced mitotic arrest but at a somewhat reduced level

- GI50 [11, 14]: > 400 µM
SMILES: CCCn1c(=O)c2sc(C)cc2n2c(Sc3c(S(N)(=O)=O)ncn3C)nnc12 [77 (NCK175), 1-methyl-5-((7-methyl-5-oxo-4-propyl-4,5-dihydrothieno[2,3-e][1,2,4]triazolo[4,3-a]pyrimidin-1-yl)thio)-1H-imidazole-4-sulfonamide]

- GI50 [11, 14]: 25.8 ± 0.26 µM
SMILES: CCCn1c(=O)c2scc(C)c2n2c(Sc3c([N+](=O)[O-])ncn3C)nnc12 [74 (NCK170), 8-methyl-1-((1-methyl-4-nitro-1H-imidazol-5-yl)thio)-4-propylthieno[2,3-e][1,2,4]triazolo[4,3-a]pyrimidin-5(4H)-one]

- GI50 [11, 14]: 14 ± 0.39 µM
SMILES: CCCn1c(=O)c2cccc(F)c2n2c(Sc3c([N+](=O)[O-])ncn3C)nnc12 [73 (NCK167), 9-fluoro-1-((1-methyl-4-nitro-1H-imidazol-5-yl)thio)-4-propyl-[1,2,4]triazolo[4,3-a]quinazolin-5(4H)-one]

- GI50 [11, 14]: > 400 µM
SMILES: CCCn1c(=O)c2sc(C)cc2n2c(Sc3c(C(F)(F)F)ncn3C)nnc12 [76 (NCK174), 7-methyl-1-((1-methyl-4-(trifluoromethyl)-1H-imidazol-5-yl)thio)-4-propylthieno[2,3-e][1,2,4]triazolo[4,3-a]pyrimidin-5(4H)-one]
